Values after ≈ are worked out from the molar mass of the structure shown.
What was measured:
Assay in all cases: MIC, broth microdilution growth inhibition
Type in all cases: cell-based
Details in all cases: Mueller-Hinton broth, 37° C., 18 h, unit assumed
[1] = tested on: A. calcoaceticus 1726
Procedure: (§1) Growth inhibitory activity was determined on liquid medium by the antibiotic dilution technique using 96-well microtiter system plates containing two-fold dilutions of antibiotic-agent in 0.2 ml. of Mueller-Hinton broth. Plates were inoculated with each test organism to yield a final inoculum of 5×10^5 CFU/ml and were incubated aerobically at 37° C. for 18 h. The MIC was defined as the lowest concentration of antibacterial agent that inhibited development of visible growth in the microdilution wells. GAR936 can be prepared e.g. as in J. Med Chem 1994, 37 184-188. Minocyline is available from e.g. Aldrich.

[2] = tested on: E. coli 851E
Procedure: as §1

[3] = tested on: E. coli 851ML308-225
Procedure: as §1

[4] = tested on: E. coli D1-209 Tet R
Procedure: as §1

[5] = tested on: E. coli D1-299 Tet R
Procedure: as §1

[6] = tested on: E. faecalis 73 Tet R
Procedure: as §1

[7] = tested on: E. faecalis ATCC 29212
Procedure: as §1

[8] = tested on: E. faecium 494
Procedure: as §1

[9] = tested on: E. faecium 97 Tet R
Procedure: as §1

[10] = tested on: H. influenzae ATCC 4927
Procedure: as §1

[11] = tested on: K. Pneumoniae 3226
Procedure: as §1

[12] = tested on: M. catarrhalis ATCC 23246
Procedure: as §1

[13] = tested on: P. aeruginosa 3808
Procedure: as §1

[14] = tested on: S. aureus ATCC 29213
Procedure: as §1

[15] = tested on: S. aureus GFX01596 Tet R
Procedure: as §1

[16] = tested on: S. pneumoniae 157
Procedure: as §1

[17] = tested on: S. pneumoniae GFX01778 Tet R
Procedure: as §1

SMILES | MIC [1] [mg/L] | MIC [2] [mg/L] | MIC [3] [mg/L] | MIC [4] [mg/L] | MIC [5] [mg/L] | MIC [6] [mg/L] | MIC [7] [mg/L] | MIC [8] [mg/L] | MIC [9] [mg/L] | MIC [10] [mg/L] | MIC [11] [mg/L] | MIC [12] [mg/L] | MIC [13] [mg/L] | MIC [14] [mg/L] | MIC [15] [mg/L] | MIC [16] [mg/L] | MIC [17] [mg/L]
CN(C)[C@@H]1C(O)=C(C(N)=O)C(=O)[C@@]2(O)C(O)=C3C(=O)c4c(O)ccc(-n5ccc(C#N)c5)c4C[C@H]3C[C@@H]12 [Compound A, [4S-(4aα,5aα,12aα)]-7-(3-Cyanopyrrol-1-yl)-4-(Dimethylamino)-1,4,4a,5,5a,6,11,12a-octahydro-3,10,12,12a-tetrahydroxy-1,11-dioxo-2-naphthacenecarboxamide] | 8 (≈ 15.9 µM) | 1 (≈ 1.98 µM) | 0.5 (≈ 0.991 µM) | 16 (≈ 31.7 µM) | 4 (≈ 7.93 µM) | 4 (≈ 7.93 µM) | 2 (≈ 3.96 µM) | 8 (≈ 15.9 µM) | 8 (≈ 15.9 µM) | 0.5 (≈ 0.991 µM) | > 128 | 0.001 (≈ 0.00198 µM) | > 128 | 0.015 (≈ 0.0297 µM) | 0.5 (≈ 0.991 µM) | 0.015 (≈ 0.0297 µM) | 2 (≈ 3.96 µM)
CN(C)[C@@H]1C(O)=C(C(N)=O)C(=O)[C@@]2(O)C(O)=C3C(=O)c4c(O)ccc(-n5ccc(C=O)c5)c4C[C@H]3C[C@@H]12 [Compound B, [4S-(4aα,5aα,12aα)]-4-(Dimethylamino)-7-(1H-pyrrol-1-yl-3-carboxaldehyde)-1,4,4a,5,5a,6,11,12a-octahydro-3,10,12,12a-tetrahydroxy-1,11-dioxo-2-naphthacenecarboxamide] | > 128 | 1 (≈ 1.97 µM) | 0.5 (≈ 0.985 µM) | > 128 | 32 (≈ 63.1 µM) | 8 (≈ 15.8 µM) | 2 (≈ 3.94 µM) | 32 (≈ 63.1 µM) | > 128 | 1 (≈ 1.97 µM) | > 128 | 0.008 (≈ 0.0158 µM) | > 128 | 0.015 (≈ 0.0296 µM) | 0.25 (≈ 0.493 µM) | 0.015 (≈ 0.0296 µM) | 2 (≈ 3.94 µM)
CN(C)CC(=O)Nc1cc(-n2ccc(C=O)c2)c2c(c1O)C(=O)C1=C(O)[C@]3(O)C(=O)C(C(N)=O)=C(O)[C@@H](N(C)C)[C@@H]3C[C@@H]1C2 [Compound C] | 16 (≈ 26.3 µM) | 1 (≈ 1.65 µM) | 0.03 (≈ 0.0494 µM) | 1 (≈ 1.65 µM) | 16 (≈ 26.3 µM) | 0.004 (≈ 0.00658 µM) | 0.125 (≈ 0.206 µM) | 0.25 (≈ 0.411 µM) | 0.06 (≈ 0.0987 µM) | 1 (≈ 1.65 µM) | 125 (≈ 206 µM) | 0.002 (≈ 0.00329 µM) | 32 (≈ 52.7 µM) | 0.125 (≈ 0.206 µM) | 4 (≈ 6.58 µM) | 0.015 (≈ 0.0247 µM) | 0.03 (≈ 0.0494 µM)
CN(C)c1cc(NC(=O)CNC(C)(C)C)c(O)c2c1C[C@H]1C[C@H]3[C@H](N(C)C)C(O)=C(C(N)=O)C(=O)[C@@]3(O)C(O)=C1C2=O [GAR-936] | 32 (≈ 54.6 µM) | 1 (≈ 1.71 µM) | – | 0.5 (≈ 0.854 µM) | 0.5 (≈ 0.854 µM) | 0.5 (≈ 0.854 µM) | 0.5 (≈ 0.854 µM) | 0.5 (≈ 0.854 µM) | 0.5 (≈ 0.854 µM) | 1 (≈ 1.71 µM) | 2 (≈ 3.41 µM) | 0.12 (≈ 0.205 µM) | 32 (≈ 54.6 µM) | 0.5 (≈ 0.854 µM) | 1 (≈ 1.71 µM) | 0.25 (≈ 0.427 µM) | 0.06 (≈ 0.102 µM)
CN(C)c1ccc(O)c2c1C[C@H]1C[C@H]3[C@H](N(C)C)C(=O)C(C(N)=O)=C(O)[C@@]3(O)C(=O)C1=C2O [MINO, Minocyline] | 1 (≈ 2.19 µM) | 0.5 (≈ 1.09 µM) | 0.25 (≈ 0.546 µM) | 16 (≈ 35 µM) | 1 (≈ 2.19 µM) | 32 (≈ 69.9 µM) | 2 (≈ 4.37 µM) | 32 (≈ 69.9 µM) | 32 (≈ 69.9 µM) | 0.5 (≈ 1.09 µM) | 32 (≈ 69.9 µM) | 0.001 (≈ 0.00219 µM) | 16 (≈ 35 µM) | 0.03 (≈ 0.0656 µM) | 0.12 (≈ 0.262 µM) | 0.5 (≈ 1.09 µM) | 16 (≈ 35 µM)

Reference: US8211937B2, “7-pyrollyl 9-aminoacyl tetracycline compounds and methods of use thereof” (Paratek Pharmaceuticals, Inc., priority 2001, dated 2012)
